Measurements as given in ChEMBL document CHEMBL5465560, “Selectivity Literature for EUbOPEN Chemogenomic Library” (2024).
Each block holds one molecule with its values, some of them ahead of it.

Assays:
[1] = target: T1, N-lysine methyltransferase KMT5A (Homo sapiens) (UniProt Q9NQR1); test: Selectivity interaction (Methyltransferase screen (radiometric assays, panel of 8 PRMTs, 21 protein lysine methyltransferases, 3 DNA methyltransferases, and one RNA methyltransferase)) EUB0000271b SETD8
T1 sequence (whole entry): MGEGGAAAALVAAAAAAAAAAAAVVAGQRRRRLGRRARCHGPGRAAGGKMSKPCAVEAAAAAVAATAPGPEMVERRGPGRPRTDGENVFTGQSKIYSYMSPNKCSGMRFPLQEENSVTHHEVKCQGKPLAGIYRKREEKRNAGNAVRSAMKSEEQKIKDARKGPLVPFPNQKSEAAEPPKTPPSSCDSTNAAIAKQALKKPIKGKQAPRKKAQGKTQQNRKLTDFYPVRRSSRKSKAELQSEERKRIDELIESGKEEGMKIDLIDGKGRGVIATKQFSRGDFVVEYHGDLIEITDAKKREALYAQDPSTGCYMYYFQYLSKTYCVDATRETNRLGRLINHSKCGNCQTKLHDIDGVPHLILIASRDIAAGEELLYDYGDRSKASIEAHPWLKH

[2] = target: Mitogen-activated protein kinase 14 (Homo sapiens, UniProt Q16539); test: Selectivity interaction (Enyzmatic assay) EUB0000601a MAPK14
Chain of Mitogen-activated protein kinase 14 (Q16539 whole entry): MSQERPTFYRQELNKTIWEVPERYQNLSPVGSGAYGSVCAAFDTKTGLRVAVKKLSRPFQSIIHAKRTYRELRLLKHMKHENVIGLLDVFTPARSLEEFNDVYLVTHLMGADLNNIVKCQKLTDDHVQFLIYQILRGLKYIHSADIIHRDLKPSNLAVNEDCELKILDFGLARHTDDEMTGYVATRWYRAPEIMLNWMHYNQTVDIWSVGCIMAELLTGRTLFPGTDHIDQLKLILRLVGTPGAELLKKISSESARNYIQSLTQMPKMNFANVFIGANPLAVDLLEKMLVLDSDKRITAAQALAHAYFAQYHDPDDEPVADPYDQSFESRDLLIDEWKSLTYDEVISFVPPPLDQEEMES

[3] = target: Proto-oncogene tyrosine-protein kinase ROS (Homo sapiens) (UniProt P08922); test: Selectivity interaction (KinomeScan (DiscoverX)) EUB0001079a ROS1; details: at 1 µM
Chain of Proto-oncogene tyrosine-protein kinase ROS (Homo sapiens) (P08922 whole entry): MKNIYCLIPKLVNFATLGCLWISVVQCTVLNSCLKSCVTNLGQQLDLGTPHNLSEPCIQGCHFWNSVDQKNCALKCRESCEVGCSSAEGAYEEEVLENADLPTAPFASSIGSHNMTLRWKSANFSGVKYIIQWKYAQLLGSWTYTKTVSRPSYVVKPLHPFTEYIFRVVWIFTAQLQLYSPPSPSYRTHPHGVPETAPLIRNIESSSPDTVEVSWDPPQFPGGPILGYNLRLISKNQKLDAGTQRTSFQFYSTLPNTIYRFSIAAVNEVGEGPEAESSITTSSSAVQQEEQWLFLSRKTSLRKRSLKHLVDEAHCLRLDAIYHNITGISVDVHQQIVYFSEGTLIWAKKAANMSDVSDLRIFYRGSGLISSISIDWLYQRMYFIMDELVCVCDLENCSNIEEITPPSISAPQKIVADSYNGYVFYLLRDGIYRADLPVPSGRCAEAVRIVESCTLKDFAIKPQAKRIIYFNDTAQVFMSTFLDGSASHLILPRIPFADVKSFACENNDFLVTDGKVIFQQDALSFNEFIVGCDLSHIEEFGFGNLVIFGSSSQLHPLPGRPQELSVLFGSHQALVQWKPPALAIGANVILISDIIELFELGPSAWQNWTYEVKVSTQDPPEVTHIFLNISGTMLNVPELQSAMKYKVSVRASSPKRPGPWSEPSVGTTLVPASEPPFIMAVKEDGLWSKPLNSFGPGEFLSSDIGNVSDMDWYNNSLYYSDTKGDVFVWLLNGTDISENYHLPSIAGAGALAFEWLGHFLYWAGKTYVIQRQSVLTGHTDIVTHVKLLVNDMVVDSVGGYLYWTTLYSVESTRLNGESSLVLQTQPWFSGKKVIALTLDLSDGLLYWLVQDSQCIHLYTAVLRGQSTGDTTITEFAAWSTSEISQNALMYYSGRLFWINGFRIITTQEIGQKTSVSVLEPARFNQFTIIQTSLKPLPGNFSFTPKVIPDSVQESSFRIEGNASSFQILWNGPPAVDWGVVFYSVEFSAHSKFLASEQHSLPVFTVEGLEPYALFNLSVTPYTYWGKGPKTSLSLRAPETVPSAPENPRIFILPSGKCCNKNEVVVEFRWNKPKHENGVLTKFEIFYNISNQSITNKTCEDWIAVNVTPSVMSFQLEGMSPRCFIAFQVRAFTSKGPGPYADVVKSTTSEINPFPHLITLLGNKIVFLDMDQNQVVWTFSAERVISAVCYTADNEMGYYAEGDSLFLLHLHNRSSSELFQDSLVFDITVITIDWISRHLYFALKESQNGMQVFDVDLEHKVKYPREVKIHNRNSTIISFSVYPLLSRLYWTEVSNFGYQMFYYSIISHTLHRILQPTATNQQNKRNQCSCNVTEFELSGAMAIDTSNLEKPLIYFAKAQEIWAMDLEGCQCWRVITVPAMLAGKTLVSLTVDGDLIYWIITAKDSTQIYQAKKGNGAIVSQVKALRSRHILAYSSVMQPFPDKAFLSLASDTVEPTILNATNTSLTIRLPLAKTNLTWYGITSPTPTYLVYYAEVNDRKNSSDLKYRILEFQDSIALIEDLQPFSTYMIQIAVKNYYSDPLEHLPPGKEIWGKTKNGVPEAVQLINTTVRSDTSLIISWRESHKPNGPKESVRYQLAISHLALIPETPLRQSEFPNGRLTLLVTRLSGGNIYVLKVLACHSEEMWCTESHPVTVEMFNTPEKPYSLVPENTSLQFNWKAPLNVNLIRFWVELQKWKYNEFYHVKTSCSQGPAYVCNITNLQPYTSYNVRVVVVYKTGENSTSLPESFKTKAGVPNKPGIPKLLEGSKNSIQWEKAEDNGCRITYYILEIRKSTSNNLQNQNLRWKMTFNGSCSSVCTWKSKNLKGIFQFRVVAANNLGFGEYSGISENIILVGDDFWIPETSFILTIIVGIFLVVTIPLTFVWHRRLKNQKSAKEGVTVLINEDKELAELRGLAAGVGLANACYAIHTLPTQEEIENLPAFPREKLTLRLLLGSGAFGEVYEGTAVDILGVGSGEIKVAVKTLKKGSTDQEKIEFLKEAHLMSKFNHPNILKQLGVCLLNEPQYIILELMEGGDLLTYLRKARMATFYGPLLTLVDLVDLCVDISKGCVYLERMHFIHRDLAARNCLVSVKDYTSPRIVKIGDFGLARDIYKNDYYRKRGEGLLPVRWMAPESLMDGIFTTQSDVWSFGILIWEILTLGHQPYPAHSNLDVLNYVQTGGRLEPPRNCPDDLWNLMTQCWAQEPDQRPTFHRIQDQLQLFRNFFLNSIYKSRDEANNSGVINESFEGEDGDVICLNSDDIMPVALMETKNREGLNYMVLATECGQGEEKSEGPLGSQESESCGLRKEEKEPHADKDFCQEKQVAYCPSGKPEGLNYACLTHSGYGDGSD

[4] = target: Cyclin-dependent kinase-like 1 (Homo sapiens) (UniProt Q00532); test: Selectivity interaction (KinomeScan (DiscoverX)) EUB0000607a CDKL1; details: at 10 µM
Chain of Cyclin-dependent kinase-like 1 (Homo sapiens) (Q00532 whole entry): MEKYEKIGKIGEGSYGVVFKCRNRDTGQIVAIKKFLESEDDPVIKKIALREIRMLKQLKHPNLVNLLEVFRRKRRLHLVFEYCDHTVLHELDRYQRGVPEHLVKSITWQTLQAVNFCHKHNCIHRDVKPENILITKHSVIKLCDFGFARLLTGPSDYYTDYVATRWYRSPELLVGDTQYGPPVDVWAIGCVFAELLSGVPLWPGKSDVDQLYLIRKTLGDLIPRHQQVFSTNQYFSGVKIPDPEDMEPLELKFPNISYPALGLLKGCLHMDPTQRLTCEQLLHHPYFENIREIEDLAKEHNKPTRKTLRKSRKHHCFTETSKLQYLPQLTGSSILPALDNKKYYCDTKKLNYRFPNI

[5] = target: Phosphatidylinositol 3-kinase catalytic subunit type 3 (Homo sapiens, UniProt Q8NEB9); test: Selectivity interaction (ActivX KiNativ screen (ex vivo kinase selectivity in human PBMCs)) EUB0001619a PIK3C3; assay type: cell-based; details: PBMC, at 1 µM
Chain of Phosphatidylinositol 3-kinase catalytic subunit type 3 (Q8NEB9 whole entry): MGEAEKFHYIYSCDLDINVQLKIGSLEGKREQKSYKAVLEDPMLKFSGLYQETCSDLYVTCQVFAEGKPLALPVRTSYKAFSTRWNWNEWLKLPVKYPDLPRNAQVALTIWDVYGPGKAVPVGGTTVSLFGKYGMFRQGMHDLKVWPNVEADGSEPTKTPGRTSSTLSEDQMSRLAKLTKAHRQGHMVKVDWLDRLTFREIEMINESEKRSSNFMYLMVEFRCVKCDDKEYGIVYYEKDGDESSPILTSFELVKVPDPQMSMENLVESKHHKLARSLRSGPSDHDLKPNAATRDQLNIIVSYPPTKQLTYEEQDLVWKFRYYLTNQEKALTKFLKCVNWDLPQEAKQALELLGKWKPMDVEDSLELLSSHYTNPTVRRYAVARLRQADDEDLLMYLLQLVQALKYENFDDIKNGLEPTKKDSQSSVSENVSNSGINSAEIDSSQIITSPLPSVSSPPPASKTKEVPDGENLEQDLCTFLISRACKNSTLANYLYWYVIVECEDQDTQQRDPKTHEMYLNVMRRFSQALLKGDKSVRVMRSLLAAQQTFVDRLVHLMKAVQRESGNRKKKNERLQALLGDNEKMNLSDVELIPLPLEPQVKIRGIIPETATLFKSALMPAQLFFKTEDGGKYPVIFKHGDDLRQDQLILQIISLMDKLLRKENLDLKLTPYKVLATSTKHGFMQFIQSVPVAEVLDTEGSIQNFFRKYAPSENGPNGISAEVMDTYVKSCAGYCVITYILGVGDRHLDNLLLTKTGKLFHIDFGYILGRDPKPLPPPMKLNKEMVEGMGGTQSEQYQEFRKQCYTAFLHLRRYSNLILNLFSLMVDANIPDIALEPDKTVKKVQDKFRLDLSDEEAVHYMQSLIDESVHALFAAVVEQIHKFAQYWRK

[6] = target: T2, Serine/threonine-protein kinase TAO2 (Homo sapiens) (UniProt Q9UL54); test: Selectivity interaction (ActivX KiNativ screen (kinase selectivity in THP-1 cell lysates)) EUB0000639a TAOK2; assay type: subcellular; details: lysate
T2 sequence (whole entry): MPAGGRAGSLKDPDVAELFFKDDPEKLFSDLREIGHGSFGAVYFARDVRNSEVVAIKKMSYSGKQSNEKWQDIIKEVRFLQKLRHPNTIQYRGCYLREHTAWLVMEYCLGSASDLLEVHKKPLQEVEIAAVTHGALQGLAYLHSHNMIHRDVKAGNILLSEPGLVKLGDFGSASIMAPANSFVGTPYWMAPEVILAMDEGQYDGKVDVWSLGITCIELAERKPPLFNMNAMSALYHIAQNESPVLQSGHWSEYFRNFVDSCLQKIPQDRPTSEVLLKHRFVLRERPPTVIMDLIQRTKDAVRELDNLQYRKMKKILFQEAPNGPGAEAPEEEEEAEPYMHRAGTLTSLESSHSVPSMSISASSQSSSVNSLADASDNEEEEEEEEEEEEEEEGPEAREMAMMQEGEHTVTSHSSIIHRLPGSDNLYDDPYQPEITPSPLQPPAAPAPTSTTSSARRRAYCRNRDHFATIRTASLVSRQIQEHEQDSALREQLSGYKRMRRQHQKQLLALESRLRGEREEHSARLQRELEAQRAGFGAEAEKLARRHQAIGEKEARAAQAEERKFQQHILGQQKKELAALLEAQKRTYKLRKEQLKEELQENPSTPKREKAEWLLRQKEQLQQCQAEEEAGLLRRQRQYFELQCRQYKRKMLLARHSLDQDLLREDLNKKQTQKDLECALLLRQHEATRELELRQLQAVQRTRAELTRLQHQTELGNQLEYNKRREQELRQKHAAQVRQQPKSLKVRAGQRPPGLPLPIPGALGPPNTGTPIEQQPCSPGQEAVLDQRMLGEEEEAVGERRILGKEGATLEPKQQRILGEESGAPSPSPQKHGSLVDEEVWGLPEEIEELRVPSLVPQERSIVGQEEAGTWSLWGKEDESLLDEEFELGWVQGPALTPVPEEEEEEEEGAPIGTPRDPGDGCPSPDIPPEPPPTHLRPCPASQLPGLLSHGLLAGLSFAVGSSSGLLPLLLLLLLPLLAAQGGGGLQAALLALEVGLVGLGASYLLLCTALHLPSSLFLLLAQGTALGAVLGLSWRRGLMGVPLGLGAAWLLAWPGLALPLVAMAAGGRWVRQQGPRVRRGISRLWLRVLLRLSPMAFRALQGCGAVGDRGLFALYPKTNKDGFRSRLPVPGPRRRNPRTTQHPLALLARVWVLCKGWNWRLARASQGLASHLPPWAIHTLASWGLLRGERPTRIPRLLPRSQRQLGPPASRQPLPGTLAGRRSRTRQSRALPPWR

[7] = target: Dual specificity protein kinase CLK3 (Homo sapiens, UniProt P49761); test: Selectivity interaction (KinomeScan (DiscoverX)) EUB0000092b CLK3; details: at 10 µM
Chain of Dual specificity protein kinase CLK3 (P49761 whole entry, looked up): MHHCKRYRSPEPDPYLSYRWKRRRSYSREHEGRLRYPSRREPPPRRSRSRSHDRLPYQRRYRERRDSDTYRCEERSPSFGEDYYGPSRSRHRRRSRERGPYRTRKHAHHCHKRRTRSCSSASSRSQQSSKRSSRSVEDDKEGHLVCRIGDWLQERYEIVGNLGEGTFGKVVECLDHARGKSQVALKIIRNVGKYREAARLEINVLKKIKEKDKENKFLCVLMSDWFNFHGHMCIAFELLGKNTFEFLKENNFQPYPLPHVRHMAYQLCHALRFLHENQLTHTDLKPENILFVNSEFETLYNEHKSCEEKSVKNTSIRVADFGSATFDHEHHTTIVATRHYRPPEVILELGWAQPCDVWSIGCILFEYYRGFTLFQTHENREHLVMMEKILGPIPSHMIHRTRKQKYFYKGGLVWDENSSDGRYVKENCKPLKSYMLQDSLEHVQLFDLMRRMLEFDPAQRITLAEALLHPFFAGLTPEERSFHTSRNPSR

Structure (SMILES): Cc1cc(C)cc([C@@H]2c3cc(C)ccc3NC(=O)CN2C(=O)c2ccc(Br)s2)c1
- % of activity ([1]; at 1 µM): 101%
- % of activity ([1]; at 10 µM): 92%

- IC50 [2]: > 10 µM
Structure (SMILES): CCc1cc(Nc2nccc(-c3c(-c4ccc(OC)c(C(=O)Nc5c(F)cccc5F)c4)nc4ccccn34)n2)c(OC)cc1N1CCC(N2CCN(S(C)(=O)=O)CC2)CC1

Structure (SMILES): Nc1cnc(N2CCc3cc(S(=O)(=O)Nc4c(F)cc(Cl)cc4F)cc(N4CCCC4=O)c32)nc1 [TP-020n]
- % of control [3]: 99%

Structure (SMILES): CNC(=O)Nc1ccc(-c2nc(N3CC4CCC(C3)O4)c3cnn(C4CCC5(CC4)OCCO5)c3n2)cc1
- % of control [4]: 84%

Structure (SMILES): N#Cc1cccc(-c2c[nH]c3ncnc(N4CCOCC4)c23)c1
- % of inhibition [5]: -17%

- % of inhibition ([6]; at 0.01 µM): 17.1%
- % of inhibition ([6]; at 0.04 µM): 2%
- % of inhibition ([6]; at 0.2 µM): -6.6%
- % of inhibition ([6]; at 1 µM): -12.9%
- % of inhibition ([6]; at 5 µM): 16.2%
Structure (SMILES): CC[C@@H]1[C@H](F)C(=O)N[C@@H]1COc1nccc2cc(C(N)=O)c(OC)cc12 [ZIMLOVISERTIB]

Structure (SMILES): CCC(=O)N1CCN(c2ccc(-n3c(=O)ccc4cnc5ccc(-c6cnc7ccccc7c6)cc5c43)cc2C(F)(F)F)CC1
- % of control [7]: 43%
